From PubChem BioAssay (NCI)
Where “and” joins values, the source holds several entries; their conditions need not be identical. Identical values can stand only once.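 Five concentrations, 48 hours, 96-well plates. Abbreviation: GI50, concentration required for 50% inhibition of growth. The concentration for full growth arrest is given as TGI.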

Experiments:
Assay in all cases: NCI tumour cell line growth inhibition, 48 h
[1] = test system: HS 578T breast
[2] = test system: DU-145 prostate
[3] = test system: HCC-2998 colon
[4] = test system: PC-3 prostate
[5] = test system: T-47D breast
[6] = test system: 786-0 renal
[7] = test system: MDA-MB-231 breast
[8] = test system: MDA-N
[9] = test system: SR leukemia
[10] = test system: P388/ADR leukemia
[11] = test system: P388 leukemia

Row | Structure (SMILES) | TGI [1] | TGI [2] [µM] | TGI [3] [µM] | TGI [4] | TGI [5] [µM] | TGI [6] [µM] | TGI [7] [µM] | TGI [8] | TGI [9] [µM] | TGI [10] [µM] | TGI [11] [µM] | GI50 [1] | GI50 [4] | GI50 [5] | GI50 [7] | GI50 [8] | GI50 [3] [µM] | GI50 [9] [µM] | GI50 [2] [µM]
1 | O=[N+]([O-])c1ccc(Cc2nc3cc4ccccc4cc3[nH]2)cc1C(F)(F)F | 49.9 µM | 57.2 | 30.1 | > 100 µM | 21.6 | 25.4 | – | – | – | – | – | – | – | – | – | – | – | – | –
2 | COC1=CC(=O)c2c(c(COC(C)=O)cn2C)C1=O | – | 0.247 | – | 1.35 µM | 3.67 | – | 1.08 | 0.253 µM | 0.545 | – | – | – | – | – | – | – | – | – | –
3 | CC(=O)Nc1c2sscc-2n(C)c1=O | 10.3 µM | 5.54 | 1.89 | 2.97 µM | 3.19 | 3.24 | 3.54 | 3.13 µM | – | – | – | – | – | – | – | – | – | – | –
4 | CN(CC(=O)O)CC(=O)O | > 100 µM | > 100 | > 100 | > 100 µM | > 100 | > 100 | > 100 | > 100 µM | – | – | – | – | – | – | – | – | – | – | –
5 | O=C(CC(Cc1ccccc1)c1ccc(Oc2ccccc2)cc1)Nc1cccc(Cl)c1 (stereo not given) | > 100 µM | > 100 | 31.8 | 27.2 µM | 8.49 | > 100 | 53.8 | > 100 µM | 47.5 | – | – | – | – | – | – | – | – | – | –
6 | N#CC(NNC(=O)c1c(Cl)c(Cl)c(Cl)c(Cl)c1-c1nc2ccc(C(=O)c3ccccc3)cc2[nH]1)c1ccccc1 (stereo not given) | > 100 µM | > 100 | – | > 100 µM | 98.8 | 42.9 | 36.4 | 6.78 µM | 11.2 | – | – | – | – | – | – | – | – | – | –
7 | COc1ccc(N2C(=O)C(=O)N(C)C2=O)c2ccccc12 | > 10 µM | > 10 | > 10 | > 10 µM | > 10 | – | > 10 | – | > 10 | – | – | – | – | – | – | – | – | – | –
8 | C1=Nc2ccccc2Cn2nncc21 | – | – | > 100 | – | – | – | – | – | > 100 | – | – | – | – | – | – | – | – | – | –
9 | O=c1ccc2c(Cl)cccc2o1 | > 100 µM | > 100 | > 100 | > 100 µM | > 100 | – | > 100 | > 100 µM | > 100 | – | – | – | – | – | – | – | – | – | –
10 | O=S(=O)(Nc1nccs1)c1ccc([As](=O)(O)O)cc1 | > 100 µM | > 100 | – | > 100 µM | > 100 | > 100 | > 100 | – | – | – | – | – | – | – | – | – | – | – | –
11 | O=[N+]([O-])c1ccc(NNN=Nc2ccc(-c3nc4ccccc4[nH]3)cc2)c([N+](=O)[O-])c1 | > 100 µM | > 100 | > 100 | > 100 µM | > 100 | > 100 | > 100 | > 100 µM | > 100 | – | – | – | – | – | – | – | – | – | –
12 | CCN(CC)CCCC(C)Nc1c2ccc(Cl)cc2nc2cc(Cl)ccc12 (stereo not given) | – | – | 5.49 | – | – | – | – | – | – | 3.48 | 3.58 | – | – | – | – | – | – | – | –
13 | OCC(O)C(O)C(O)C(O)CNCCO/N=C1/C(c2c(O)[nH]c3ccccc23)=Nc2ccccc21 (stereo not given) | 44.4 µM | > 50 | 28.7 | 30.8 µM | 22.5 | > 50 | 29.7 | 19.4 µM | 25.3 | – | – | – | – | – | – | – | – | – | –
14 | CC(C(=O)NCCNC(=O)CCCC(=O)N(C)O)C(=O)NCCNC(=O)CCCC(=O)N(C)O | > 100 µM | > 100 | > 100 | > 100 µM | > 100 | – | > 100 | > 100 µM | > 100 | – | – | – | – | – | – | – | – | – | –
15 | CSC1=C(SC)C(=O)c2cn(C)c(=O)cc2C1=O | > 26.5 µM | 21 | 35.8 | 26.2 µM | 3.99 | – | 3.7 | 3.06 µM | – | – | – | – | – | – | – | – | – | – | –
16 | CC[C@@]1(O)C(=O)OCc2c1cc1n(c2=O)Cc2cc3c(CN(C)C)c(O)ccc3nc2-1 | 96.6 µM and 12.2 µM and 39.6 µM | – | – | > 90.1 µM and 14.8 µM and 35 µM | – | – | – | 0.777 µM and 5.2 µM and 0.902 µM | – | 2.77 | 2.66 | 1.27 µM and 5.8 µM and 1.88 µM | 0.0425 µM and 0.26 µM | < 0.0117 µM and 0.0189 µM and 0.0186 µM | 0.847 µM and 0.393 µM and 3.22 µM | 0.0241 µM and 0.119 µM and 0.0221 µM | – | – | –
17 | Clc1ccc(OCc2nnc3sc(SSc4nn5c(COc6ccc(Cl)cc6)nnc5s4)nn23)cc1 | > 100 µM | > 100 | > 100 | – | > 100 | > 100 | > 100 | – | > 100 | – | – | – | – | – | – | – | 16.1 | 14.2 | –
18 | Fc1cc(C2=Nn3c(CNc4ccc(Cl)cc4)nnc3S/C2=C\c2ccc(-c3ccc(Cl)cc3)o2)c(Cl)cc1Cl | > 100 µM | > 100 | > 100 | 51 µM | > 100 | > 100 | 32.2 | > 100 µM | > 100 | – | – | – | – | – | – | – | – | – | –
19 | CC1(CO)C(O)CCC2(C)C1C(O)CC1CC3CC12CCC3(O)CO (stereo not given) | – | – | > 225 | – | – | – | – | – | – | > 225 | > 22.5 | – | – | – | – | – | – | – | –
20 | CNCCCn1c2c(c3ccc(Cl)cc3c1=O)C(=O)c1cc(OC)cnc1-2 | – | 1.74 | – | 2.33 µM | – | – | 3.54 | – | 1.11 | – | – | – | 1.02 µM | – | 1.62 µM | – | – | 0.143 | 0.331
21 | Fc1ccc(Nc2ncc(-c3cc(F)c(Cl)cc3Cl)s2)cc1Cl | 36.4 µM | 30.8 | – | 27.7 µM | > 100 | – | 6.87 | – | – | – | – | 11.5 µM | 14 µM | > 100 µM | 2.15 µM | – | – | – | 9.01
22 | COc1ccc(/C=C2\C[C@H]3[C@@H]4CC=C5C[C@@H](OC(C)=O)CC[C@]5(C)[C@H]4CC[C@]3(C)C2=O)cc1OC | > 100 µM | > 100 | > 100 | > 100 µM | > 100 | > 100 | – | > 100 µM | > 100 | – | – | – | – | – | – | – | – | – | –
23 | Clc1ccc(C2CC(c3cccc(Nc4ccncc4)c3)=NN2c2ccccc2)cc1 (stereo not given) | – | 3.27 | 3.06 | 3.12 µM | 4.86 | – | 3.21 | – | – | – | – | – | 1.6 µM | 2.1 µM | 1.7 µM | – | 1.6 | – | 1.73
24 | CC(C)C(=O)Nc1ccc(-c2nc(-c3cccc(OCCN4CCOCC4)c3)c(-c3ccnc(Br)c3)[nH]2)cc1 | 3.69 µM | > 100 | 11.4 | 14.5 µM | 34.2 | – | > 100 | – | 7.09 | – | – | 1.04 µM | 3.08 µM | 2.68 µM | 3.66 µM | – | 3.21 | 1.83 | 4.48
25 | CC(C)(C)CNCCCNc1ccc(Cl)cc1 | > 100 µM | > 100 | – | > 100 µM | – | > 100 | 82.3 | > 100 µM | 49.4 | – | – | – | – | – | – | – | – | – | –
26 | COc1ccc(C2CC(c3ccc(NS(=O)(=O)c4cc([N+](=O)[O-])ccc4C)cc3)=NN2S(=O)(=O)c2cc([N+](=O)[O-])ccc2C)cc1 (stereo not given) | – | > 100 | 57.9 | > 100 µM | > 100 | > 100 | > 100 | > 100 µM | > 100 | – | – | – | – | – | – | – | – | – | –
